Here are results for one compound from patent US12268674B2, “Mi-2β inhibitor as an immunotherapy agent” (BioVentures, LLC, priority 2021, dated 2025).

What all share (assay): ATPase profile (ATP acyl phosphate probe)
Format in all cases: binding

The target of one test is T1, AHCY (Homo sapiens, UniProt P23526).
T1 construct: to get the native cell lysate; host or cells: A375 cell lysate
The following applies: SEQ ID NO: 30, ATP BS.

A further test addresses T2, GSS (Homo sapiens, UniProt P48637).
T2 construct: endogenous in cells; host or cells: A375 cell lysate

Another test concerns the target T3, NT5E (Homo sapiens, UniProt P21589).
T3 construct: to get the native cell lysate; endogenous in cells; host or cells: A375
The following applies: SEQ ID NO: 140, ATP BS.

For a further test, the target named is T4, ALDH18A1 (Homo sapiens, UniProt P54886).
T4 construct: to get the native cell lysate; host or cells: A375 cell lysate
The following applies: ALDH18A1, SEQ ID NO: 39, ATP BS.

In a further test the target is T5, ACACA (Homo sapiens, UniProt Q13085).
T5 construct: to get the native cell lysate; host or cells: A375 cell lysate
The conditions noted are these: SEQ ID NO: 20, ATP BS.

A further test deals with T6, CLPX (Homo sapiens, UniProt O76031).
T6 construct: endogenous in cells; host or cells: A375 cell lysate
The following applies: SEQ ID NO: 59, ATP BS.

The target of the next test is PSMC2 (Homo sapiens, UniProt P35998). The following applies: PSMC2, SEQ ID NO: 174, ATP BS.
Another test deals with T7, ATAD1 (Homo sapiens, UniProt Q8NBU5).
T7 construct: to get the native cell lysate; host or cells: A375 cell lysate
The following applies: ATAD1, SEQ ID NO: 44, ATP BS.

The next test addresses T8, APRT (Homo sapiens, UniProt P07741).
T8 construct: to get the native cell lysate; host or cells: A375 cell lysate
The conditions noted are these: SEQ ID NO: 40, ATP BS.

A further test concerns the target T9, HYOU1 (Homo sapiens, UniProt Q9Y4L1).
T9 construct: to get the native cell lysate; endogenous in cells; host or cells: A375

T2 sequence (P48637 whole entry): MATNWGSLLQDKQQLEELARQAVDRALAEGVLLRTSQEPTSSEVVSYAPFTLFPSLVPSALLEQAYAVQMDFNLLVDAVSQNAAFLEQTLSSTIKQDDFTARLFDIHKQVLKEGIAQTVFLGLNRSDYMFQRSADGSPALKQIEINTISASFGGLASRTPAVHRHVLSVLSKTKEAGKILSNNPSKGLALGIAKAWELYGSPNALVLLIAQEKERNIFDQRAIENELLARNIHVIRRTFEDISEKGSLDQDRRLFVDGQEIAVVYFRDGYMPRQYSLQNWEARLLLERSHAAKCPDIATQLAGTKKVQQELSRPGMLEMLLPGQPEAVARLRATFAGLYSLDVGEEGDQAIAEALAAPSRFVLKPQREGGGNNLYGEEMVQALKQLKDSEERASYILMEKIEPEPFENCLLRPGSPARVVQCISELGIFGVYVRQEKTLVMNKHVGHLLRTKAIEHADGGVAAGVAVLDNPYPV
T9 sequence (Q9Y4L1 33-999): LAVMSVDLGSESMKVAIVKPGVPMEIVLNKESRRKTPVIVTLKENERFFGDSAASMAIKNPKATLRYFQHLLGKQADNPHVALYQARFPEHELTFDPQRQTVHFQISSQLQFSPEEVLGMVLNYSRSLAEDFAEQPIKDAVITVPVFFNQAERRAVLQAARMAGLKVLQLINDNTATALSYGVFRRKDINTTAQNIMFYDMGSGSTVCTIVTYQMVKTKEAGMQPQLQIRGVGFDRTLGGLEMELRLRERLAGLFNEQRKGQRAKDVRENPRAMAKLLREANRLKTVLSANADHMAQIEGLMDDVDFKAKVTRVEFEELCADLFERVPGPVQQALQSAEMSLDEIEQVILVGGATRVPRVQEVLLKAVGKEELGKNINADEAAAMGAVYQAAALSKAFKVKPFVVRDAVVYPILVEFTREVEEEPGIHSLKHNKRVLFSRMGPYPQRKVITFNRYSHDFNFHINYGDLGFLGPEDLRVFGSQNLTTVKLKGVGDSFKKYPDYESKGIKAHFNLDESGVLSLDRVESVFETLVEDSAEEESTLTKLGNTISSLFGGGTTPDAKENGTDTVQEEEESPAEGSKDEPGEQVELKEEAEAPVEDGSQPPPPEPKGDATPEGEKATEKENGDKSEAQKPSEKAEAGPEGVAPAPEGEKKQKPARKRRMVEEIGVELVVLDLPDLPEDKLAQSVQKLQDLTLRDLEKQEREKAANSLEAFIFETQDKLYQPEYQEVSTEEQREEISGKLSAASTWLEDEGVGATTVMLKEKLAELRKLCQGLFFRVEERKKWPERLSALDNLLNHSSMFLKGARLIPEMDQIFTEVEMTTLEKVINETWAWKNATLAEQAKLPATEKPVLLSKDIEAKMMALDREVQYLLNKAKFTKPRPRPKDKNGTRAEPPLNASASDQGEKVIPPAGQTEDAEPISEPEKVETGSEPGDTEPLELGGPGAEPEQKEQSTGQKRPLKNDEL
T1 sequence (P23526 whole entry): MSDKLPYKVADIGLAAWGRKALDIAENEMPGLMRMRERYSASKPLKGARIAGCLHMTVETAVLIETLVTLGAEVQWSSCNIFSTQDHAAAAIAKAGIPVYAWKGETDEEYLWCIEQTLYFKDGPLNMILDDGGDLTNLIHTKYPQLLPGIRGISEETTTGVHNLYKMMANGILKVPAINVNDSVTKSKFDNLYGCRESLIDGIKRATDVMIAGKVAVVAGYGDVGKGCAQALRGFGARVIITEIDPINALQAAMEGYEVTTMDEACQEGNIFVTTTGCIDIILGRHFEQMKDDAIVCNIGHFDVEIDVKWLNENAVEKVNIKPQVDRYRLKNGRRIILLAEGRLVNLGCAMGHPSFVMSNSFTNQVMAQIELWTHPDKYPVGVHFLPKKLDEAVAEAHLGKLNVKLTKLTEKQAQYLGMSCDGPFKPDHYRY
Chain of PSMC2 (P35998 whole entry): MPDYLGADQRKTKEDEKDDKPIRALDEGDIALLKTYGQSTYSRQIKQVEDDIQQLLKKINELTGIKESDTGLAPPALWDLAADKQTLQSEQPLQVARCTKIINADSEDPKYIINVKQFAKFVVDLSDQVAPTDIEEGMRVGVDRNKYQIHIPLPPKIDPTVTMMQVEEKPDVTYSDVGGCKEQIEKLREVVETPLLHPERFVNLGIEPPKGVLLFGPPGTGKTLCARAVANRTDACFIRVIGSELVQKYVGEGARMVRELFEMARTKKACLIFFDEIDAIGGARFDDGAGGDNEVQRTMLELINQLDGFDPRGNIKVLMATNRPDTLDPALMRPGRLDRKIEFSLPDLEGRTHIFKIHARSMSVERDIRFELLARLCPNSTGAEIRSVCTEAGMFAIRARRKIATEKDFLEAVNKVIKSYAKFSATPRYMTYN
Chain of PSMC2 (P62191 whole entry partner): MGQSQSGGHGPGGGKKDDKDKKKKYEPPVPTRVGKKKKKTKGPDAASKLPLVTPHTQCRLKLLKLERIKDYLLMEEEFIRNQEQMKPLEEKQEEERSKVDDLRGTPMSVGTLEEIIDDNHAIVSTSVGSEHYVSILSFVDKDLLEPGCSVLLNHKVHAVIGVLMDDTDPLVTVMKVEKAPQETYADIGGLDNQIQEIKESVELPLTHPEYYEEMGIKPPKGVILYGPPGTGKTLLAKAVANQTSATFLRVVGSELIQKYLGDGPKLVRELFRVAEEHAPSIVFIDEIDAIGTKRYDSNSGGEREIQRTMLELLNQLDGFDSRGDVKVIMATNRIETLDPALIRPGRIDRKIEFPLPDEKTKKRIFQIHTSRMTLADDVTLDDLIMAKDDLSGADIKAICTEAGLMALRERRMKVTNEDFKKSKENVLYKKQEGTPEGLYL
Chain of PSMC2 (P17980 whole entry partner): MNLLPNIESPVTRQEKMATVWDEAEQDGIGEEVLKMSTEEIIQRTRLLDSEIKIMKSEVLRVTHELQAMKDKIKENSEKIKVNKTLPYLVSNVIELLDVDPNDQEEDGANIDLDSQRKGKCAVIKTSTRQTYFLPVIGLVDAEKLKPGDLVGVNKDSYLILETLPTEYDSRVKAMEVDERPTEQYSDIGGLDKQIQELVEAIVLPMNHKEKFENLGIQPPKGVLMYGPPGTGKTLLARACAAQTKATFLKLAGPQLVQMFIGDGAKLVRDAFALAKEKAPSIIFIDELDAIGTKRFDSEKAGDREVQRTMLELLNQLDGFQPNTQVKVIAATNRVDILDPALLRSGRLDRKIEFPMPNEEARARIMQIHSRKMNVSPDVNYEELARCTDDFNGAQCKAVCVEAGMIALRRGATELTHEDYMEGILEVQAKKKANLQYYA
Chain of PSMC2 (P43686 whole entry partner): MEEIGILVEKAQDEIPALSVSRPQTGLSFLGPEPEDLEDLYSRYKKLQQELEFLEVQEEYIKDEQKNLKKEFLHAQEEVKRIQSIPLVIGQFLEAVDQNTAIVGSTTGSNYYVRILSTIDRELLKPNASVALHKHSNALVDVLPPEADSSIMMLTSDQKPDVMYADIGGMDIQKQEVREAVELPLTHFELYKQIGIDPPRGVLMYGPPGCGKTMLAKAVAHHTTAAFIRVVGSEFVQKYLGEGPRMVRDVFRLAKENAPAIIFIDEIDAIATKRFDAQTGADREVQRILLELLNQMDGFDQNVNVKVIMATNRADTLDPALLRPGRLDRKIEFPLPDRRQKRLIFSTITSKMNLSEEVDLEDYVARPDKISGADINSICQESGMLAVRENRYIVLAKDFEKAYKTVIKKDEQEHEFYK
Chain of PSMC2 (P62195 whole entry partner): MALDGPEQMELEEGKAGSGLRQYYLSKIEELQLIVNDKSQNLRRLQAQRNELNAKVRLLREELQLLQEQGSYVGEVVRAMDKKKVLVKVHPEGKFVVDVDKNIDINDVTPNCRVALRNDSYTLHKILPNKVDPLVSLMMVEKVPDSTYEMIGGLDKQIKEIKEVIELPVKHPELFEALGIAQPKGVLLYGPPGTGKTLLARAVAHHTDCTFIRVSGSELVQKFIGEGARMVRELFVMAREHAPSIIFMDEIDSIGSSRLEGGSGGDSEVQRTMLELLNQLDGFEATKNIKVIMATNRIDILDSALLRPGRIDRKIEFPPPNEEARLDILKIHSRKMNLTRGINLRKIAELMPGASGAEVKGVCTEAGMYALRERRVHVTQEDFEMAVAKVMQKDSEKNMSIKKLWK
Chain of PSMC2 (P62333 whole entry partner): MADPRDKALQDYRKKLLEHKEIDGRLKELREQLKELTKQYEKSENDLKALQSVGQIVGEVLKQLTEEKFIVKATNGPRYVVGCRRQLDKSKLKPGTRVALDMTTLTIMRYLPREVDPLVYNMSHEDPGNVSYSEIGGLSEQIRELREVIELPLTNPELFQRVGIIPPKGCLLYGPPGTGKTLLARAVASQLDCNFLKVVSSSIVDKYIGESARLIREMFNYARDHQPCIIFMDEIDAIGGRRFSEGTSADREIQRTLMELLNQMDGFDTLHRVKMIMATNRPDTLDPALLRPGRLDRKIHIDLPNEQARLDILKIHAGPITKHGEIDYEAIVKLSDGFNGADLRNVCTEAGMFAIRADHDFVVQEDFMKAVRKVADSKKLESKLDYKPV
T8 sequence (P07741 whole entry): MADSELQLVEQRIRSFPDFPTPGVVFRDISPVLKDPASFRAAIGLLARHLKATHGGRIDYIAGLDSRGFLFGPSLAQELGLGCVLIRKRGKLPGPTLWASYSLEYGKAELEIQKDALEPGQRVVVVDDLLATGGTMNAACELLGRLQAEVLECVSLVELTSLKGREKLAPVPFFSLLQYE
T7 sequence (Q8NBU5 whole entry): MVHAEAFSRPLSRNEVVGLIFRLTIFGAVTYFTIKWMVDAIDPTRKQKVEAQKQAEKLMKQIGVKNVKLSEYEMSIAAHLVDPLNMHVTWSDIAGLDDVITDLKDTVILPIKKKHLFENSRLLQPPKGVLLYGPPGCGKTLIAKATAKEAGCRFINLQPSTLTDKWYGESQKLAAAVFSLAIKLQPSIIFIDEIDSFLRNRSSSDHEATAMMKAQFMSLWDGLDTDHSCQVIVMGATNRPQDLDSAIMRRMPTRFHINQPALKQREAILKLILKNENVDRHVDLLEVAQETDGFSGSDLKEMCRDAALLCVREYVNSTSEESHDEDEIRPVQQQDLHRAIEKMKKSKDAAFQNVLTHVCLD

As for `Cn1c(=O)[nH]c2ccc(-c3cccc(C(=O)NC4CCn5ccnc5C4)c3)cc21` (stereo not drawn) [Z36-MP5, 3-(3-methyl-2-oxo-2,3-dihydro-1H-benzo[d]imidazol-5-yl)-N-(5,6,7,8-tetrahydroimidazo[1,2-a]pyridin-7-yl)benzamide], the “Inhibition (%) by 1 μM Z36-MP5” value is reported as −10.85% at AHCY; −5.02% at GSS (SEQ ID NO: 87, ATP BS); 7.54% at GSS (SEQ ID NO: 88, ATP BS); −9.95% on NT5E; −6.95% on ALDH18A1; 6.21% on ACACA. For the same compound, the “Inhibition (%) by 1 μM Z36-MP5” value is 0.44% at CLPX; −6.44% at PSMC2; 15.67% on ATAD1; 0.39% on APRT; −13.34% at HYOU1 (HYOU1, SEQ ID NO: 109, ATP BS); −6.78% at HYOU1 (HYOU1, SEQ ID NO: 110, ATP BS).
